The values below come from ChEMBL document CHEMBL1201862, “PubChem BioAssay data set” (2004).

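Exposure lasted 48 hours, with cells grown in 96-well plates and compounds tested at five concentrations. Here, GI50 denotes the concentration required for 50% inhibition of growth.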 Active and inactive are the calls of the source. Rule as the data show it: active = GI50 up to about 1.1 µM and inactive = higher. Where only a bound is given, the exact number is not on record here.

Some test systems named below: SW-620; SR; SK-MEL-2; MCF7; MDA-MB-231; NCI-H522; NCI/ADR-RES; A549; SN12C; EKVX; DU-145; COLO 205; LOX IMVI; NCI-H226; NCI-H23; HL-60; MDA-MB-435; OVCAR-4; PC-3; DLD-1.
What all share (test): NCI-60 cell line screen, 48 h

Consider `CC1(C)Oc2ccc(NC(=O)CCC(N)C(=O)O)cc2O1` (stereo unspecified), for which the GI50 with SW-620, in the experiment with SR, in the experiment with SK-MEL-2, in the experiment with MCF7, with MDA-MB-231 and with NCI-H522 was > 100 µM (inactive) each time. Moreover, the GI50 in the experiment on NCI/ADR-RES, in the experiment on A549, with SN12C, in the experiment on EKVX, in the experiment with DU-145 and in the experiment with COLO 205 was > 100 µM (inactive) throughout. Moreover, the GI50 in the experiment on LOX IMVI, in the experiment on NCI-H226, in the experiment with NCI-H23, with HL-60, in the experiment on MDA-MB-435 and with OVCAR-4 was > 100 µM (inactive) throughout. Besides, the GI50 in the experiment with PC-3 is > 100 µM (inactive).
For `CCOc1ccc(N2C(=O)/C(=C/c3ccc(N(CCC#N)CCC#N)cc3)N=C2c2cc([N+](=O)[O-])ccc2Cl)cc1`, the GI50 with SW-620 was 23 µM (inactive); in the experiment on SK-MEL-2 it was > 100 µM (inactive); in the experiment with A549, 45 µM (inactive); in the experiment with SN12C it was 63 µM (inactive); with EKVX it was 27.4 µM (inactive); with COLO 205 it was 17.6 µM (inactive). Further, the GI50 was 23 µM (inactive) in the experiment on LOX IMVI; 42.4 µM (inactive) in the experiment on NCI-H226; 40.8 µM (inactive) in the experiment on NCI-H23; 32.2 µM (inactive) with DLD-1; 47.6 µM (inactive) with HL-60; 59 µM (inactive) in the experiment with OVCAR-4.
On to `O=c1[nH]c(C23CC4CC(CC(C4)C2)C3)cc2c1c(=O)oc1ccccc12`, for which the GI50 is 7.59 µM (inactive) with SW-620; 0.366 µM (active) with SR; 13.8 µM (inactive) in the experiment on SK-MEL-2; 6 µM (inactive) with MCF7; 3.4 µM (inactive) in the experiment on MDA-MB-231; 2.58 µM (inactive) in the experiment on NCI-H522. The GI50 in the experiment with NCI/ADR-RES is 3.96 µM (inactive); in the experiment on A549, 2.83 µM (inactive); in the experiment on SN12C, 9.18 µM (inactive); with EKVX it was 0.32 µM (active); in the experiment with DU-145, 6.31 µM (inactive); with COLO 205, 10 µM (inactive). The GI50 was 2.95 µM (inactive) with LOX IMVI; 2.19 µM (inactive) in the experiment on NCI-H226; 9.57 µM (inactive) in the experiment with NCI-H23; 29.4 µM (inactive) with HL-60; 13.4 µM (inactive) in the experiment with MDA-MB-435; 3.15 µM (inactive) in the experiment with OVCAR-4. The GI50 with PC-3 was 3.27 µM (inactive).
As to `O=c1c(F)cn2c(=O)n1CCCCCCCn1c(=O)c(F)cn(c1=O)CCCCCCC2`, the GI50 in the experiment on SW-620 was > 100 µM (inactive); in the experiment on SR it was 39.4 µM (inactive); in the experiment with SK-MEL-2, > 100 µM (inactive); in the experiment on MCF7 it was > 100 µM (inactive); in the experiment on MDA-MB-231, 34 µM (inactive); with NCI-H522, > 100 µM (inactive). In addition, the GI50 in the experiment on NCI/ADR-RES was 69 µM (inactive); with A549, > 100 µM (inactive); with SN12C, > 100 µM (inactive); in the experiment on EKVX it was > 100 µM (inactive); in the experiment on DU-145, 1.59 µM (inactive); with COLO 205 it was > 100 µM (inactive). For the same compound, the GI50 in the experiment with LOX IMVI is > 100 µM (inactive); in the experiment with NCI-H226 it was 54.5 µM (inactive); in the experiment with NCI-H23, > 100 µM (inactive); in the experiment with HL-60 it was 49.5 µM (inactive); with MDA-MB-435, 64.9 µM (inactive); in the experiment on OVCAR-4, 30.1 µM (inactive). Moreover, the GI50 with PC-3 is > 100 µM (inactive).
Turning to `O=C(CC(=O)c1cccc2ccccc12)C(=O)NC1C2CC3CC(C2)CC1C3` (stereo unspecified), the GI50 with SW-620, with NCI-H522, in the experiment with A549, with SN12C, in the experiment with EKVX and with COLO 205 was > 100 µM (inactive) in each case. Also, the GI50 in the experiment with LOX IMVI is > 100 µM (inactive); in the experiment with NCI-H226 it was > 100 µM (inactive); with NCI-H23, > 100 µM (inactive); in the experiment on DLD-1 it was > 100 µM (inactive); with HL-60, 77.1 µM (inactive); with OVCAR-4 it was > 100 µM (inactive).
With `C=C1C(=O)OC2CC(C)C3CC(O)OC(OCC)C3(C)CC12` (stereo unspecified), the GI50 was 6.85 µM (inactive) in the experiment on SW-620; 13.6 µM (inactive) in the experiment with SR; 15.3 µM (inactive) in the experiment with SK-MEL-2; 13.3 µM (inactive) in the experiment on MCF7; 17.5 µM (inactive) in the experiment on MDA-MB-231; 7.03 µM (inactive) with NCI-H522. For the same compound, the GI50 was 16.7 µM (inactive) with NCI/ADR-RES; 41.6 µM (inactive) in the experiment on A549; 15.8 µM (inactive) in the experiment with SN12C; 23.7 µM (inactive) in the experiment with EKVX; 33.6 µM (inactive) in the experiment with DU-145; 15.8 µM (inactive) in the experiment with COLO 205. Also, the GI50 with LOX IMVI was 6.01 µM (inactive); in the experiment with NCI-H226 it was 25.3 µM (inactive); in the experiment with NCI-H23, 17.1 µM (inactive); with HL-60 it was 1.14 µM (inactive); in the experiment on MDA-MB-435 it was 18 µM (inactive); in the experiment with OVCAR-4 it was 21.7 µM (inactive). Besides, the GI50 in the experiment with PC-3 is 19.9 µM (inactive).
On to `C1=CC(N(c2ccccc2)C2C=CCCC2)CCC1` (stereo unspecified), for which the GI50 in the experiment with SW-620 was > 100 µM (inactive); with NCI-H522, 67 µM (inactive); with A549, > 100 µM (inactive); in the experiment with SN12C, > 100 µM (inactive); in the experiment with EKVX, > 100 µM (inactive); in the experiment with COLO 205, > 100 µM (inactive). Further, the GI50 in the experiment on LOX IMVI was > 100 µM (inactive); in the experiment with NCI-H23, > 100 µM (inactive); with DLD-1, > 100 µM (inactive); in the experiment on HL-60, 69.8 µM (inactive).
On to `C[N+](C)([O-])CCCNc1c2ccccc2nc2cccc([N+](=O)[O-])c12`, for which the GI50 was 0.203 µM (active) in the experiment with SW-620; 0.0653 µM (active) in the experiment on SR; 0.214 µM (active) in the experiment on SK-MEL-2; 0.113 µM (active) in the experiment with MCF7; 0.33 µM (active) with MDA-MB-231; 0.115 µM (active) in the experiment on NCI-H522. Further, the GI50 in the experiment with NCI/ADR-RES is 8.2 µM (inactive); in the experiment on A549, 0.175 µM (active); in the experiment with SN12C it was 0.265 µM (active); in the experiment on EKVX, 0.28 µM (active); with DU-145 it was 0.299 µM (active); in the experiment with COLO 205 it was 0.143 µM (active). In addition, the GI50 with LOX IMVI was 0.51 µM (active); in the experiment on NCI-H226, 0.313 µM (active); with NCI-H23, 0.156 µM (active); in the experiment on HL-60, 0.351 µM (active); with MDA-MB-435, 0.226 µM (active); in the experiment with OVCAR-4, 0.288 µM (active). For the same compound, the GI50 in the experiment on PC-3 is 0.219 µM (active).
As for `COc1ccc(C2C3=C(COC3=O)OC(C)(C)Oc3cc4c(cc32)OCO4)cc1OC` (stereo unspecified), the GI50 with SW-620 was 33.3 µM (inactive); in the experiment with SR, 29.2 µM (inactive); with SK-MEL-2 it was 34.4 µM (inactive); in the experiment on MCF7, 40.1 µM (inactive); with MDA-MB-231 it was 33.8 µM (inactive); in the experiment with NCI-H522, 32.4 µM (inactive). For the same compound, the GI50 was 19.9 µM (inactive) with NCI/ADR-RES; 36.8 µM (inactive) in the experiment with A549; 51.9 µM (inactive) in the experiment on SN12C; 28.5 µM (inactive) with EKVX; 42.1 µM (inactive) in the experiment with DU-145; 20.9 µM (inactive) in the experiment with COLO 205. In addition, the GI50 in the experiment on LOX IMVI is 40.8 µM (inactive); in the experiment on NCI-H226 it was > 78.7 µM (inactive); in the experiment on NCI-H23, 36.8 µM (inactive); in the experiment on HL-60, 29.2 µM (inactive); in the experiment on MDA-MB-435, 17.3 µM (inactive); in the experiment on OVCAR-4, > 53.8 µM (inactive). Moreover, the GI50 in the experiment on PC-3 was 28.1 µM (inactive).
`O=C1Nc2ccccc2C12CCNC2Cc1ccccc1` (stereo unspecified): the GI50 in the experiment with SW-620, with SK-MEL-2, in the experiment with A549, with EKVX, with COLO 205 and in the experiment with LOX IMVI was > 100 µM (inactive) throughout. Also, the GI50 with NCI-H23, in the experiment with DLD-1, in the experiment with HL-60 and in the experiment with OVCAR-4 was > 100 µM (inactive) in each case.
For the compound `CCOc1cc(C2CC(c3ccc(NS(=O)(=O)c4cc([N+](=O)[O-])ccc4C)cc3)=NN2C(=O)c2ccccc2)ccc1O` (stereo unspecified), the GI50 was 32.8 µM (inactive) in the experiment on SW-620; 23.8 µM (inactive) with SR; 13.7 µM (inactive) in the experiment with SK-MEL-2; 17.3 µM (inactive) in the experiment with MCF7; 17.5 µM (inactive) with MDA-MB-231; 14.8 µM (inactive) with NCI-H522. Besides, the GI50 in the experiment with NCI/ADR-RES was 23.3 µM (inactive); in the experiment with A549 it was 17.8 µM (inactive); in the experiment with SN12C, 22.3 µM (inactive); with EKVX, 18.7 µM (inactive); in the experiment on DU-145, 32.7 µM (inactive); in the experiment with COLO 205, 16.4 µM (inactive). The GI50 in the experiment with LOX IMVI is 26.9 µM (inactive); in the experiment with NCI-H226 it was 19.2 µM (inactive); in the experiment on NCI-H23, 21.5 µM (inactive); with HL-60, 17.2 µM (inactive); in the experiment on MDA-MB-435, 28.1 µM (inactive); in the experiment on OVCAR-4 it was 24.6 µM (inactive). The GI50 in the experiment on PC-3 was 17.5 µM (inactive).
On to `O=C(/C=C/c1ccc(O)c(O)c1)OCc1ccccc1` [BENZYL CAFFEATE], for which the GI50 in the experiment on SW-620 is 17.4 µM (inactive); with SR, 3.74 µM (inactive); in the experiment with SK-MEL-2, 13.4 µM (inactive); in the experiment with MCF7 it was 7.8 µM (inactive); in the experiment with MDA-MB-231 it was 21.6 µM (inactive); in the experiment with NCI-H522, 0.809 µM (active). For the same compound, the GI50 with NCI/ADR-RES was 15.8 µM (inactive); in the experiment with A549, 19.2 µM (inactive); in the experiment with SN12C, 11.6 µM (inactive); in the experiment with EKVX, 29.7 µM (inactive); with DU-145, 15.1 µM (inactive); with COLO 205 it was 22.4 µM (inactive). The GI50 in the experiment on LOX IMVI is 15.5 µM (inactive); in the experiment on NCI-H226, 31.3 µM (inactive); in the experiment with NCI-H23, 14.8 µM (inactive); in the experiment with HL-60, 0.938 µM (active); in the experiment on MDA-MB-435, 6.27 µM (inactive); in the experiment with OVCAR-4, 8.97 µM (inactive). Further, the GI50 in the experiment with PC-3 was 18 µM (inactive).
